One may read the IC50 as the concentration that inhibits the measured activity by half.

For assay [1], the target named is T1, porcine microtubule protein (tubulin plus microtubule-associated proteins) (Sus scrofa, UniProt P02554).
T1 construct: extracted from pigs' brain by two cycles of temperature-dependent depolymerisation/polymerisation; from tissue; host or cells: pig brain
As to the kind of experiment: Test-compound-induced polymerisation of porcine microtubule protein (inhibition of microtubule depolymerisation). It counts as biochemical, pig. The conditions noted are these: test compound 4 uM, porcine microtubule protein (Batch #9) 0.8 mg/ml; 25 μM epothilone B = 100% polymerization, vehicle = 0%.
Protocol: Stock solutions of the test compounds (10 mM) are prepared in DMSO and stored at −20° C. […] The degree of test-compound-induced polymerisation of porcine microtubule protein is determined basically as already known (see Lin et al., Cancer Chem. Pharm. 1996; 38:136-140). To summarise, a working aliquot of porcine microtubule protein is rapidly thawed and then diluted to 2× final desired concentration in ice-cold 2× MEM buffer (200 ml MES, 2 mM EGTA, 2 mM MgCl2, pH 6.7) [MES=2-morpholinoethanesulphonic acid, EGTA=ethylene glycol-bis-2(2-aminoethyl)-tetraacetic acid]. Drug or vehicle (DMSO, final concentration 5%) is diluted in water at room temperature to 2× the final desired concentration in a 0.5 ml eppendorf tube, and then put on ice. Following addition of an equal volume (50 μl) of microtubule protein (2× final desired concentration in 2× MEM buffer), the polymerization reaction is started by transferring the incubation mixtures to a room-temperature water bath for 5 min. The reaction mixtures are then placed in an Eppendorf microcentrifuge (model 5415 C) and incubated for an additional 15 min at room temperature. The samples are then centrifuged for 15 min at 14,000 rpm at room temperature. As an indirect measure for microtubule protein polymerization, the protein concentration of the supernatant (containing the remainder of non-polymerized, soluble microtubule protein) is determined by the Lowry method (DC Assay Kit, Bio-Rad Laboratories, Hercules, Calif.) and the optical density of the colour reaction is measured at 750 nm with a SpectraMax 340 photometer (Molecular Devices, Sunnydale, Calif.). […] Vehicle-treated samples serve as negative control (0% polymerization).
Final assay concentrations of test compound and porcine microtubule protein (Batch #9) were 4 uM and 0.8 mg/ml, respectively.

In assay [2] the test system is KB-8511 (multidrug-resistant, P-gp170 overexpressing) epidermoid carcinoma cells. The experiment in a line: Cell growth inhibition, multidrug-resistant KB-8511 epidermoid carcinoma cells (methylene blue staining). It counts as cell-based, human. Conditions: KB-8511 cells (P-gp170 overexpressing), 4 days incubation with compound. The procedure:
(§1) Stock solutions of the test compounds (10 mM) are prepared in DMSO and stored at −20° C. Human KB-31 and (multidrug-resistant, P-gp170 overexpressing) KB-8511 epidermoid carcinoma cells originate from Dr. M. Baker, Roswell Park Memorial institute (Buffalo, N.Y., USA) (description: see also Akiyama et al., Somat. Cell. Mol. Genetics 11, 117-126 (1985) and Fojo A., et al., Cancer Res. 45, 3002-3007 (1985) -KB-31 and KB-8511 are both derivatives of the KB cell line (ATCC). KB 31 cells may be cultivated in monolayers using RPMI-1640 medium (Amimed, BioConcept, Allschwil, Switzerland) with 10% foetal calf serum (Amimed, BioConcept, Allschwil, Switzerland), L-glutamine (Amimed, BioConcept, Allschwil, Switzerland), penicillin (50 units/ml) and streptomycin (50 μg/ml (Amimed, BioConcept, Allschwil, Switzerland). KB-8511 is a variant derived from the KB-31 cell line, which was obtained using colchichine treatment cycles, and has an approximately 40 times relative resistance to colchichine compared with KB-31 cells (Akiyama et al., Somat. Cell. Mol. Genetics 11, 117-126 (1985) and Fojo A., et al., Cancer Res. 45, 3002-3007 (1985)). The cells are incubated at 37° C. in an incubator with 5% v/v CO2 and at 80% relative humidity with RPMI-1640 medium complemented as described above. The cells are seeded in a quantity of 1.5×10^3 cells/well in 96-well microtitre plates, and incubated over night. Serial dilutions of the test compounds in culture medium are added on day 1. The plates are then incubated for a further 4 days, after which the cells are fixed with 3.3% v/v glutaraldehyde, washed with water and dyed with 0.05% w/v methylene blue. After washing, the dye is eluted with 3% HCl and the optical density measured at 665 nm with a SpectraMax 340 (Molecular Devices, Sunnyvale, Calif.). IC50 values are determined by adaptation of mathematical curves, using the SoftProprogramme (Version 2.0 or later; Molecular Devices, Sunnyvale, Calif.) and using the formula [(OD treated)−(OD start)]/[(OD control)−(OD start)]×100. […]

For assay [3], the system named is KB-31 epidermoid carcinoma cells. The experiment in a line: Cell growth inhibition, KB-31 epidermoid carcinoma cells (methylene blue staining). It counts as cell-based, human. The conditions noted are these: KB-31 cells, 4 days incubation with compound. The procedure: as §1

T1 sequence (P02554 whole entry): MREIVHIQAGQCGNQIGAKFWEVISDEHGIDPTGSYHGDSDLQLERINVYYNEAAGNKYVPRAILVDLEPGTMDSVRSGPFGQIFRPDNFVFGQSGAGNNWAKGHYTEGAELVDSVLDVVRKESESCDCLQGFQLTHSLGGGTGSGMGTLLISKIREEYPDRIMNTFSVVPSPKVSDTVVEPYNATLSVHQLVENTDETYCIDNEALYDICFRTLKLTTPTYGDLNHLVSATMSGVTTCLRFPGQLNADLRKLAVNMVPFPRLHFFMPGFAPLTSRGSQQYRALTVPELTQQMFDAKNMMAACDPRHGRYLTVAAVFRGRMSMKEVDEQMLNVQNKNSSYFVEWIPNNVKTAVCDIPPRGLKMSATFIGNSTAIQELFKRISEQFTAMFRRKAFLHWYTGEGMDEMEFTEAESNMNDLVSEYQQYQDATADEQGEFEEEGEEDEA
T1 sequence (P02550 whole entry partner): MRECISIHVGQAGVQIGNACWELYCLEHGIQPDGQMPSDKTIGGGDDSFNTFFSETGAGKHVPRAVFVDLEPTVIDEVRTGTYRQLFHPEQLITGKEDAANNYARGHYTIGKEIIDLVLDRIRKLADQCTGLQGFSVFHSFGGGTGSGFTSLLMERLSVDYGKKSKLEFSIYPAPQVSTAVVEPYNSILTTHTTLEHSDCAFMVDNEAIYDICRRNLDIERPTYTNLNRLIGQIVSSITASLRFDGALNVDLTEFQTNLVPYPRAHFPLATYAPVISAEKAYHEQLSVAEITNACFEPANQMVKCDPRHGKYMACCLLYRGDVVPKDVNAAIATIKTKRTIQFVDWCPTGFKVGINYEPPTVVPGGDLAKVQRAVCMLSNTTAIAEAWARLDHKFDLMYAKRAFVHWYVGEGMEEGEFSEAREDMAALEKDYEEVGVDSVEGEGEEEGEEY

Consider `C/C(=C\c1csc(C)n1)[C@@H]1C[C@@H]2O[C@@H]2CCC[C@H](C)[C@H](O)[C@@H](C)C(=O)C(C)(C)[C@@H](O)CC(=O)O1` [Epothilone A], for which the “Tubulin Polymerisation (% of control)” value in assay [1] is 76.5 % of control.
Regarding `CC(=O)O[C@H]1C(=O)[C@@]2(C)[C@H]([C@H](OC(=O)c3ccccc3)[C@]3(O)C[C@H](OC(=O)[C@H](O)[C@@H](NC(=O)c4ccccc4)c4ccccc4)C(C)=C1C3(C)C)[C@]1(OC(C)=O)CO[C@@H]1C[C@@H]2O` [Paclitaxel], the IC50 amounted to 739 ± 86 nM in assay [2] (Homo sapiens, 96 h) and 3.76 ± 0.52 nM in assay [3] (Homo sapiens, KB 3-1, 96 h).
Regarding `C/C(=C\c1csc(C)n1)[C@@H]1C[C@@H]2O[C@]2(C)CCC[C@H](C)[C@H](O)[C@@H](C)C(=O)C(C)(C)[C@@H](O)CC(=O)O1` [Epothilone B], in assay [1], the “Tubulin Polymerisation (% of control)” value is given as 93.3 % of control. The values for the IC50 in assay [2] and in assay [3] were 0.2 ± 0.04 nM and 0.28 ± 0.04 nM, respectively.
Consider `C/C(=C\c1csc(C)n1)C1CC2OC2(C)CCCC(C)C(O)C(C)C(=O)C(C)C(O)CC(=O)O1` (stereo not drawn) [Example 1, C4-Desmethyl-Epothilone B], for which the “Tubulin Polymerisation (% of control)” value in assay [1] was 93.3 % of control. For the same compound, the results for the IC50 in assay [2] and in assay [3] were 0.8 ± 0.16 nM and 0.49 ± 0.05 nM, respectively.
